The values that follow come from ChEMBL document CHEMBL4354877, “MymA Bioactivated Thioalkylbenzoxazole Prodrug Family Active against Mycobacterium tuberculosis” (J Med Chem, 2020).

Data set [1] in a line: Intrinsic clearance in mouse liver microsomes at 0.5 uM incubated for 45 mins in presence of NADPH by LC-MS/MS analysis. The data set is classed as ADME, Microsome. The conditions noted are these: 0.75 h.
Data set [2] can be described thus: Intrinsic clearance in human liver microsomes at 0.5 uM incubated for 45 mins in presence of NADPH by LC-MS/MS analysis. The data set is classed as ADME, Microsome. Conditions: 0.75 h.
In data set [3] the test system is Mycobacterium tuberculosis. The data set is described as follows: Antimycobacterial activity against Mycobacterium tuberculosis H37Rv intracellular forms infected in human THP1 cells assessed as inhibition of microbial growth incubated for 5 days by luciferase reporter gene assay. Format: functional. The conditions noted are these: THP-1, 120 h.
The subject of data set [4] is HepG2. The data set is described as follows: Cytotoxicity in human HepG2 cells assessed as reduction in cell viability incubated for 48 hrs by Cell-titer Glo kit based assay. Conditions: HepG2, 48 h.
The nature of data set [5]: Kinetic aqueous solubility in pH 7.4 PBS incubated for 1 hr by CLND assay. Format: physicochemical. The conditions noted are these: read-out: Kinetic_solubility.
Data set [6] can be described thus: Permeability at pH 7.4 incubated for 4 hrs by PAMPA method. Format: ADME. Conditions: read-out: permeability.
The nature of data set [7]: Solubility in pH 6.5 FaSSIF incubated for 4 hrs by HPLC-UV based assay. The data set is classed as physicochemical.
Data set [8] concerns Mycobacterium tuberculosis. The data set is described as follows: Antimycobacterial activity against Mycobacterium tuberculosis extracellular forms assessed as inhibition of microbial growth. The data set is classed as functional.

Each structure is given as a SMILES string. Converted amounts (≈) assume the structure as drawn. Bounds are passed on as bounds.

`CC(CC(=O)N1CCCC1)Sc1nc2cc(Cl)ccc2o1` (stereo not drawn): the CLH was 165.1 mL/min/g in data set [1] and 8.6 mL/min/g in data set [2]. The IC90 in data set [3] is 4 µM.
On the same counts, the results for `O=C(CCSc1nc2cc(F)ccc2o1)N1CCCC1` are 115.2 mL/min/g, 5.2 mL/min/g and 1.6 µM.
The like results for `O=C(CCSc1nc2cnccc2o1)N1CCCC1` were, in that order, 3.1 mL/min/g, 0.6 mL/min/g and 35.1 µM.
The like results for `O=C(CCSc1nc2cc(Cl)ccc2o1)N1CCCCC1` were, in that order, 127.7 mL/min/g, 10.7 mL/min/g and 2.5 µM.
On to `CC1CCN(C(=O)CCSc2nc3cc(Cl)ccc3o2)C1` (stereo not drawn), for which the results for the CLH in data set [1] and in data set [2] were 90.7 mL/min/g and 10.1 mL/min/g, respectively. The IC90 in data set [3] was 3.1 µM.
With `O=C(CCSc1nc2c(Cl)cccc2o1)N1CCCC1`, the CLH in data set [1] was found to be 97.9 mL/min/g; in data set [2] it was 15.8 mL/min/g. Further, in data set [3], the IC90 worked out at 24.3 µM.
In the case of `CCNC(=O)CCSc1nc2cc(Cl)ccc2o1`, in data set [3], the 90% effect concentration (IC90) was above 50 µM.
As to `O=C(CCSc1nc2cc(Cl)ccc2o1)NC1CCCC1`, the CLH in data set [2] stood at 11.3 mL/min/g. In data set [3], the 90% effect concentration (IC90) was above 50 µM.
Consider `CS(=O)(=O)N1CCN(C(=O)CCSc2nc3cc(Cl)ccc3o2)CC1`, for which the CLH in data set [1] turned out to be 1.4 mL/min/g; in data set [2], 0.6 mL/min/g. Besides, the 90% effect concentration (IC90) in data set [3] was 20.4 µM.
The like results for `O=C(CCSc1nc2cc(Cl)ccc2o1)N1CCC(F)(F)C1` were, in that order, 83.6 mL/min/g, 11.3 mL/min/g and 1.1 µM.
On the same counts, the results for `O=C(CCSc1nc2cc(F)c(F)cc2o1)N1CCCC1` are 45.9 mL/min/g, 6.5 mL/min/g and 1.3 µM.
Take `O=C(CCSc1nc2ccncc2o1)N1CCCC1`: the CLH in data set [1] came to 5.7 mL/min/g; in data set [2] it was 0.9 mL/min/g. Moreover, the IC90 in data set [3] is above 50 µM.
On the same counts, the results for `O=C(CCSc1nc2cc(Cl)ccc2o1)N1CCS(=O)(=O)CC1` are 2.3 mL/min/g, 0.4 mL/min/g and above 50 µM.
In the case of `O=C1CCCN1CCCSc1nc2cc(Cl)ccc2o1`, the CLH in data set [1] was determined as 51 mL/min/g; in data set [2] it was 4.8 mL/min/g. The 90% effect concentration (IC90) in data set [3] is 6.5 µM.
Take `CC1CCCN1C(=O)CCSc1nc2cc(Cl)ccc2o1` (racemic): the CLH in data set [1] turned out to be 98 mL/min/g; in data set [2], 8.5 mL/min/g. The IC90 in data set [3] amounted to 25.5 µM.
Regarding `CS(=O)(=O)C1CCN(C(=O)CCSc2nc3cc(Cl)ccc3o2)CC1`, the CLH came to 2.6 mL/min/g in data set [1] and 0.5 mL/min/g in data set [2]. In addition, the IC90 in data set [3] is above 50 µM.
With `O=C(CSCc1nc2cc(Cl)ccc2o1)N1CCCC1`, the results for the CLH in data set [1] and in data set [2] were 71.8 mL/min/g and 1.5 mL/min/g, respectively. Besides, the concentration for an effect of 90% (IC90) in data set [3] was above 50 µM.
As for `CN(C(=O)CCSc1nc2cc(Cl)ccc2o1)C1CCS(=O)(=O)CC1`, the IC50 in data set [4] is above 100 µM. Moreover, the solubility kinetic at 1 h in data set [5] is above 328 µM. Moreover, the Papp at 4 h in data set [6] was found to be 44 ×10⁻⁶ cm/s. For the same compound, the CLH in data set [1] is 0.7 mL/min/g; in data set [2], below 0.4 mL/min/g. The solubility at 4 h in data set [7] was 178 µg/mL (≈ 442 µM). In addition, the MIC in data set [8] was found to be 40 µM. Further, the concentration for an effect of 90% (IC90) in data set [3] amounted to 7.7 µM.
Take `O=C(CCCSc1nc2cc(Cl)ccc2o1)N1CCCC1`: the CLH in data set [1] came to 124.8 mL/min/g; in data set [2], 3.4 mL/min/g. Besides, the IC90 in data set [3] was 2.3 µM.
`Cc1ccc2oc(SCCC(=O)N3CCCC3)nc2c1`: the CLH in data set [2] was 9.3 mL/min/g. Further, in data set [3], the 90% effect concentration (IC90) worked out at 8.4 µM.
For `CSc1nc2cc(Cl)ccc2o1`, the results for the CLH in data set [1] and in data set [2] were above 46.1 mL/min/g and 19 mL/min/g, respectively. For the same compound, the IC90 in data set [3] is above 50 µM.
Take `CN(CCC(=O)N1CCCC1)c1nc2cc(Cl)ccc2o1`: the CLH in data set [2] was 1.9 mL/min/g. Besides, the IC90 in data set [3] is above 50 µM.
`O=C(CSc1nc2cc(Cl)ccc2o1)N1CCCC1`: the CLH was determined as 153.6 mL/min/g in data set [1] and 1.6 mL/min/g in data set [2]. The IC90 in data set [3] is 36 µM.
As for `Cc1nc(SCCC(=O)N2CCCC2)oc1C`, the figures for the CLH in data set [1] and in data set [2] were 3.9 mL/min/g and below 0.4 mL/min/g, respectively. Also, the IC90 in data set [3] is above 50 µM.
On the same counts, the results for `O=C(CCSc1nc2cccc(Cl)c2o1)N1CCCC1` are 121.9 mL/min/g, 13.5 mL/min/g and 2.7 µM.
Take `O=C(CCSc1nc2cc(Cl)ccc2o1)N1CCC1`: the CLH is 17.9 mL/min/g in data set [1] and 3.7 mL/min/g in data set [2]. In data set [3], the IC90 is above 50 µM.
The like results for `O=C(CCSc1nc2cc(F)ccc2o1)N1CCS(=O)(=O)CC1` were, in that order, 1.5 mL/min/g, 0.4 mL/min/g and above 50 µM.
On to `O=C(CCSc1nc2ccccc2o1)N1CCCC1`, for which the CLH in data set [1] is 161.2 mL/min/g; in data set [2], 5.1 mL/min/g. Also, the concentration for an effect of 90% (IC90) in data set [3] was 4.4 µM.
The like results for `CN(C(=O)CCSc1nc2cc(Cl)ccc2o1)C1CCS(=O)(=O)C1` (stereo not drawn) were, in that order, 0.8 mL/min/g, 1.5 mL/min/g and 25.4 µM.
The like results for `O=C(CCSc1nc2cc(Cl)ccc2s1)N1CCCC1` were, in that order, 67 mL/min/g, 15 mL/min/g and 15.6 µM.
The like results for `Clc1ccc2oc(SCCCN3CCCC3)nc2c1` were, in that order, 10.4 mL/min/g, 1.9 mL/min/g and 42.6 µM.
Consider `O=C(CCSc1nc2cc(Cl)ccc2o1)N1CCS(=O)(=O)C1`, for which the CLH in data set [1] is 8.9 mL/min/g; in data set [2] it was 1.7 mL/min/g. Further, the concentration for an effect of 90% (IC90) in data set [3] is above 50 µM.
Turning to `O=C(CCSc1nc2cc(N3CCOCC3)ccc2o1)N1CCCC1`, the CLH in data set [1] was determined as 18.7 mL/min/g; in data set [2], 1.1 mL/min/g. In addition, the IC90 in data set [3] came to 27.2 µM.
On the same counts, the results for `O=C(CCSc1nc2cc(Cl)ccc2[nH]1)N1CCCC1` are 56.8 mL/min/g, 9.2 mL/min/g and above 50 µM.
On the same counts, the results for `O=C(CCNc1nc2cc(Cl)ccc2o1)N1CCCC1` are 81.1 mL/min/g, 2.3 mL/min/g and above 50 µM.
Take `O=C(CCSc1nc(-c2ccccc2)co1)N1CCCC1`: in data set [2], the CLH is 20.9 mL/min/g. In addition, in data set [3], the IC90 is above 50 µM.
`O=C(CCSc1nc2ncccc2o1)N1CCCC1`: the CLH in data set [1] amounted to 18.6 mL/min/g; in data set [2], 0.7 mL/min/g. Besides, in data set [3], the IC90 is above 50 µM.
The like results for `O=S1(=O)CCCN1CCCSc1nc2cc(Cl)ccc2o1` were, in that order, 115.2 mL/min/g, 4.7 mL/min/g and 7.7 µM.
The like results for `CN(C(=O)CCSc1nc2cc(F)ccc2o1)C1CCS(=O)(=O)CC1` were, in that order, 0.6 mL/min/g, below 0.4 mL/min/g and above 50 µM.
`O=C(CCSc1nc2cc(Cl)ccc2o1)N1CCOCC1`: the results for the CLH in data set [1] and in data set [2] were 36.5 mL/min/g and 2.2 mL/min/g, respectively. For the same compound, the concentration for an effect of 90% (IC90) in data set [3] amounted to 11.4 µM.
As for `O=C(CCSc1nc2ccc(Cl)cc2o1)N1CCCC1`, the CLH in data set [1] amounted to 109.4 mL/min/g; in data set [2], 6.6 mL/min/g. Also, in data set [3], the IC90 turned out to be 1.6 µM.
The like results for `COc1ccc2oc(SCCC(=O)N3CCCC3)nc2c1` were, in that order, 197.8 mL/min/g, 6.1 mL/min/g and 4 µM.
Turning to `CN1CCN(C(=O)CCSc2nc3cc(Cl)ccc3o2)CC1`, the CLH in data set [1] was determined as 41.5 mL/min/g; in data set [2], 1.5 mL/min/g. In addition, in data set [3], the IC90 is 17.2 µM.
On the same counts, the results for `O=C(CCCc1nc2cc(Cl)ccc2o1)N1CCCC1` are 115.2 mL/min/g, 1.4 mL/min/g and above 50 µM.
For `CCN(CC)C(=O)CCSc1nc2cc(Cl)ccc2o1`, the figures for the CLH in data set [1] and in data set [2] were 107.5 mL/min/g and 5.9 mL/min/g, respectively. Moreover, in data set [3], the IC90 came to 3.9 µM.
The like results for `CN(C)C(=O)CCSc1nc2cc(Cl)ccc2o1` were, in that order, 41.8 mL/min/g, 2.7 mL/min/g and 30 µM.
On to `CS(=O)(=O)C1CCN(C(=O)CCSc2nc3cc(Cl)ccc3o2)C1` (racemic), for which the CLH was 2.1 mL/min/g in data set [1] and below 0.4 mL/min/g in data set [2]. For the same compound, in data set [3], the 90% effect concentration (IC90) is above 50 µM.
On the same counts, the results for `O=C(CCSc1ncc(-c2ccccc2)o1)N1CCCC1` are 176.6 mL/min/g, 11 mL/min/g and above 50 µM.
